Patent US20250144067A1, “PERSONALIZED STARVATION THERAPY FOR CANCER” (Faeth Therapeutics, Inc., priority 2021, published 2025)
Where a name gives a salt, the structure may show the parent alone.

Tests used:
[1] = test system: NCI-H292 lung cancer cells; experiment: FDA drug screening, complete media vs cholesterol-free media with simvastatin (TABLE 2); type: cell-based, human; settings: for Cholesterol-free media + simvastatin (0.04 μM) / Complete Media: NCI-H292 cells
[2] = test system: NCI-H292 lung cancer cells; experiment: FDA drug screening, complete media vs cholesterol-free media without statin (TABLE 1); type: cell-based, human
[3] = cholesterol-free media with simvastatin 0.04 μM, cell growth value in FDA drug screen
[4] = complete media, cell growth value in FDA drug screen
[5] = complete media minus cholesterol-free media + simvastatin, >0 enhanced anti-cancer activity, about 0 neutral, <0 antagonist
[6] = Complete minus Cholesterol-free, >0 enhanced anti-cancer activity, about 0 neutral, <0 antagonist
[7] = NCI-H292 cells, cholesterol-free media without statin, FDA drug library screen
[8] = NCI-H292 cells, complete media, FDA drug library screen
[9] = drug in cholesterol-free media with simvastatin 0.04 μM
[10] = complete media vs cholesterol-free media + simvastatin (0.04 μM), >0 enhanced anti-cancer activity, about 0 neutral, <0 antagonist
[11] = NCI-H292 cells, cholesterol-free media without statin
[12] = complete vs cholesterol-free media, greater than 0 enhanced anti-cancer activity, about 0 neutral, below 0 antagonists
[13] = cholesterol-free media with simvastatin 0.04 μM, FDA drug library screen (TABLE 2)
[14] = complete media, FDA drug library screen (TABLE 2)
[15] = complete media minus cholesterol-free media + simvastatin (0.04 μM), >0 enhanced anti-cancer activity, about 0 neutral, <0 antagonist
[16] = complete vs cholesterol-free media, >0 enhanced anti-cancer activity, about 0 neutral, <0 antagonist
[17] = FDA drug library screen, cholesterol-free media with simvastatin 0.04 μM
[18] = FDA drug library screen, complete media
[19] = FDA library drug in cholesterol-free media with simvastatin 0.04 μM
[20] = FDA library drug in complete media
[21] = Complete minus Cholesterol-free, greater than 0 enhanced anti-cancer activity, about 0 neutral, below 0 antagonist
[22] = NCI-H292 cells, FDA drug library screen, cholesterol-free media without statin
[23] = NCI-H292 cells, FDA drug library screen, complete media
[24] = complete media vs cholesterol-free media + simvastatin (0.04 μM), […]
[25] = Complete minus Cholesterol-free, […]
[26] = Complete minus Cholesterol-free, greater than 0 enhanced anti-cancer activity, about 0 neutral, below 0 antagonists
[27] = NCI-H292 cells in cholesterol-free media without statin
[28] = NCI-H292 cells in complete media

CCc1c2c(nc3ccc(OC(=O)N4CCC(N5CCCCC5)CC4)cc13)-c1cc3c(c(=O)n1C2)COC(=O)[C@]3(O)CC [Irinotecan (hydrochloride)]
Cholesterol-free media + simvastatin (0.04 μM) [1, 3]: 0.928
Complete Media [1, 4]: 1.063
Difference [1, 5]: 0.13
Difference [2, 6]: 0.02
Cholesterol-free [2, 7]: 1.352
Complete [2, 8]: 1.37

CC(COc1ccccc1)NC(C)C(O)c1ccc(O)cc1 (stereo not shown) [Isoxsuprine hydrochloride]
Cholesterol-free media + simvastatin (0.04 μM) [1, 9]: 0.8873
Complete Media ([1]; drug in complete media): 0.6774
Difference [1, 10]: −0.21
Cholesterol-free [2, 11]: 1.314
Complete ([2]; NCI-H292 cells, complete media): 0.939
Difference [2, 12]: −0.38

COC(=O)Nc1nc2cc(C(=O)c3ccc(F)cc3)ccc2[nH]1 [Flubendazole]
Cholesterol-free media + simvastatin (0.04 μM) [1, 13]: 1.122
Complete Media [1, 14]: 1.079
Difference [1, 15]: −0.04
Cholesterol-free [2, 7]: 0.549
Complete [2, 8]: 1.107
Difference [2, 16]: 0.56

O=C(C[S+]([O-])Cc1ccco1)NC/C=C\COc1cc(CN2CCCCC2)ccn1 (stereo not shown) [Lafutidine]
Cholesterol-free media + simvastatin (0.04 μM) [1, 3]: 1.203
Complete Media [1, 4]: 1.221
Difference [1, 5]: 0.02
Difference [2, 6]: 0.01
Cholesterol-free [2, 7]: 1.364
Complete [2, 8]: 1.371

CC(C)(C)NC(=O)[C@H]1CC[C@H]2[C@@H]3CC=C4C=C(C(=O)O)CC[C@]4(C)[C@H]3CC[C@]12C [Epristeride]
Cholesterol-free media + simvastatin (0.04 μM) [1, 17]: 0.7018
Complete Media [1, 18]: 0.8964
Difference [1, 5]: 0.19
Cholesterol-free [2, 7]: 0.5663
Complete [2, 8]: 1.029
Difference [2, 16]: 0.46

CC(C)(Oc1ccc(C2CC2(Cl)Cl)cc1)C(=O)O (stereo not shown) [Ciprofibrate]
Cholesterol-free media + simvastatin (0.04 μM) [1, 19]: 1.569
Complete Media [1, 20]: 1.161
Difference [1, 10]: −0.41
Difference [2, 21]: −0.11
Cholesterol-free [2, 22]: 1.09
Complete [2, 23]: 0.9746

COC(c1ccccc1)(c1ccccc1)[C@H](Oc1nc(C)cc(C)n1)C(=O)O [Ambrisentan]
Cholesterol-free media + simvastatin (0.04 μM) [1, 17]: 1.296
Complete Media [1, 18]: 1.497
Difference [1, 5]: 0.20
Difference [2, 21]: −0.16
Cholesterol-free [2, 22]: 1.13
Complete [2, 23]: 0.9703

CCOC(=O)c1ccc(O)cc1 [Ethylparaben]
Cholesterol-free media + simvastatin (0.04 μM) [1, 17]: 1.326
Complete Media [1, 18]: 1.517
Difference [1, 5]: 0.19
Cholesterol-free [2, 7]: 1.065
Complete [2, 8]: 1.563
Difference [2, 16]: 0.50

Dihydroergocristine (mesylate)
Cholesterol-free media + simvastatin (0.04 μM) [1, 17]: 1.12
Complete Media [1, 18]: 1.011
Difference [1, 24]: −0.11
Difference [2, 25]: −0.17

CC(C)NCC(O)c1ccccc1Cl (stereo not shown) [Clorprenaline hydrochloride]
Cholesterol-free media + simvastatin (0.04 μM) [1, 17]: 0.6832
Complete Media [1, 18]: 0.8199
Difference [1, 5]: 0.14
Cholesterol-free [2, 7]: 0.6182
Complete [2, 8]: 1.062
Difference [2, 16]: 0.44

CC(C)(C)C(O)/C=C/c1ccc2c(c1)OCO2 (stereo not shown) [Stiripentol]
Cholesterol-free media + simvastatin (0.04 μM) [1, 13]: 0.9313
Complete Media [1, 14]: 0.8754
Difference [1, 15]: −0.06
Difference [2, 6]: 0.02
Cholesterol-free [2, 7]: 0.9226
Complete [2, 8]: 0.9415

Cc1cc(NS(=O)(=O)c2ccc(N)cc2)nc(C)n1 [Sulfisomidin]
Cholesterol-free media + simvastatin (0.04 μM) [1, 19]: 1.147
Complete Media [1, 20]: 0.7862
Difference [1, 24]: −0.36
Difference [2, 25]: −0.21
Cholesterol-free [2, 11]: 1.055
Complete ([2]; NCI-H292 cells, complete media): 0.8471

Cc1cn[nH]c1 [Fomepizole]
Cholesterol-free media + simvastatin (0.04 μM) [1, 17]: 0.8562
Complete Media [1, 18]: 1.121
Difference [1, 5]: 0.26
Difference [2, 6]: −0.26
Cholesterol-free [2, 11]: 1.239
Complete ([2]; NCI-H292 cells, complete media): 0.9771

COc1cc2nccc(Oc3ccc(NC(=O)C4(C(=O)Nc5ccc(F)cc5)CC4)cc3)c2cc1OC [Cabozantinib (S-malate)]
Cholesterol-free media + simvastatin (0.04 μM) [1, 19]: 1.216
Complete Media [1, 20]: 0.9255
Difference [1, 10]: −0.29
Difference [2, 21]: −0.18
Cholesterol-free [2, 22]: 1.011
Complete [2, 23]: 0.8269

Acetylspiramycin
Cholesterol-free media + simvastatin (0.04 μM) [1, 17]: 1.237
Complete Media [1, 18]: 1.1
Difference [1, 24]: −0.14
Difference [2, 25]: −0.20
Cholesterol-free [2, 11]: 1.42
Complete ([2]; NCI-H292 cells, complete media): 1.224

O=C(OCc1ccccc1)c1ccccc1 [Benzyl benzoate]
Cholesterol-free media + simvastatin (0.04 μM) [1, 13]: 0.8319
Complete Media [1, 14]: 0.7979
Difference [1, 15]: −0.03
Cholesterol-free [2, 7]: 0.6319
Complete [2, 8]: 1.132
Difference [2, 16]: 0.50

CCCCCCNC(=O)n1cc(F)c(=O)[nH]c1=O [Carmofur]
Cholesterol-free media + simvastatin (0.04 μM) [1, 9]: 0.7692
Complete Media ([1]; drug in complete media): 0.6005
Difference [1, 10]: −0.17
Cholesterol-free [2, 11]: 0.5487
Complete ([2]; NCI-H292 cells, complete media): 0.2009
Difference [2, 12]: −0.35

Rasagiline (mesylate)
Cholesterol-free media + simvastatin (0.04 μM) [1, 17]: 1.319
Complete Media [1, 18]: 1.208
Difference [1, 10]: −0.11
Difference [2, 21]: −0.16
Cholesterol-free [2, 22]: 0.8816
Complete [2, 23]: 0.7256

Eprosartan (mesylate)
Cholesterol-free media + simvastatin (0.04 μM) [1, 13]: 0.8775
Complete Media [1, 14]: 0.8724
Difference [1, 15]: −0.01
Difference [2, 26]: −0.55
Cholesterol-free [2, 27]: 1.415
Complete [2, 28]: 0.8697

CC(=O)N(CC(O)CN(C(C)=O)c1c(I)c(C(=O)NCC(O)CO)c(I)c(C(=O)NCC(O)CO)c1I)c1c(I)c(C(=O)NCC(O)CO)c(I)c(C(=O)NCC(O)CO)c1I (stereo not shown) [Iodixanol]
Cholesterol-free media + simvastatin (0.04 μM) [1, 13]: 1.197
Complete Media [1, 14]: 1.164
Difference [1, 15]: −0.03
Cholesterol-free [2, 7]: 0.9782
Complete [2, 8]: 1.054
Difference [2, 16]: 0.08

COc1cc(C(=O)NS(=O)(=O)c2ccccc2C)ccc1Cc1cn(C)c2ccc(NC(=O)OC3CCCC3)cc12 [Zafirlukast]
Cholesterol-free media + simvastatin (0.04 μM) [1, 17]: 1.598
Complete Media [1, 18]: 1.505
Difference [1, 10]: −0.09
Difference [2, 6]: 0.05
Cholesterol-free [2, 7]: 0.8473
Complete [2, 8]: 0.9001

COc1cc2c(cc1Cc1cccc(Cl)c1F)c(=O)c(C(=O)O)cn2[C@H](CO)C(C)C [Elvitegravir]
Cholesterol-free media + simvastatin (0.04 μM) [1, 17]: 1.032
Complete Media [1, 18]: 1.435
Difference [1, 5]: 0.40
Difference [2, 26]: −0.83
Cholesterol-free [2, 27]: 1.777
Complete [2, 28]: 0.9448

C/C(=C\C(=O)OCCCCCCCCC(=O)O)C[C@@H]1OC[C@H](C[C@@H]2O[C@H]2[C@@H](C)[C@H](C)O)[C@@H](O)[C@H]1O [Mupirocin]
Cholesterol-free media + simvastatin (0.04 μM) [1, 19]: 1.454
Complete Media [1, 20]: 1.069
Difference [1, 10]: −0.38
Cholesterol-free [2, 7]: 0.7089
Complete [2, 8]: 1.063
Difference [2, 16]: 0.35
